Measured values published in BindingDB's records for doi:10.1016/j.bioorg.2016.01.004 (University of Karachi, 2016).

Key:
Acetylcholinesterase = Acetylcholinesterase (Electrophorus electricus, UniProt O42275); test: AChE and BChE Inhibition Activity; conditions: pH 8
Protocol: (§1) Inhibitory activities of AChE and BChE were evaluated by using the Ellman's method [34]. […] For initial screening each compound was dissolved in DMSO (end concentration of DMSO was less than 1% in assay) and tested at a final concentration of 0.5 mM. The compounds with considerable inhibition (more than 50%) were subjected to further analysis by making their 8 to 10 serial dilutions in assay buffer (50 mM Tris-HCl, 0.1 M NaCl and 0.02 M MgCl2, pH 8.0). Reaction mixture comprised of 20 µL assay buffer, 10 µL of test compound, 10 µL of 0.031 U/mL of enzyme (0.5 and 3.4 U/mg of AChE or BuChE respectively). This mixture was incubated at 25 °C for 10 min. After this preincubation, enzymatic reaction was started by addition of 10 µL of 1 mM acetylethiocholine iodide or butyrylthiocholine chloride (depending on the enzyme) and the mixture was incubated again for 15 min. The amount of enzymatic product was esti

[1] = biological target: Carboxylic ester hydrolase (Equus caballus, UniProt Q9N1N9); test: AChE and BChE Inhibition Activity; conditions: pH 8
Chain of Carboxylic ester hydrolase (Q9N1N9 whole entry): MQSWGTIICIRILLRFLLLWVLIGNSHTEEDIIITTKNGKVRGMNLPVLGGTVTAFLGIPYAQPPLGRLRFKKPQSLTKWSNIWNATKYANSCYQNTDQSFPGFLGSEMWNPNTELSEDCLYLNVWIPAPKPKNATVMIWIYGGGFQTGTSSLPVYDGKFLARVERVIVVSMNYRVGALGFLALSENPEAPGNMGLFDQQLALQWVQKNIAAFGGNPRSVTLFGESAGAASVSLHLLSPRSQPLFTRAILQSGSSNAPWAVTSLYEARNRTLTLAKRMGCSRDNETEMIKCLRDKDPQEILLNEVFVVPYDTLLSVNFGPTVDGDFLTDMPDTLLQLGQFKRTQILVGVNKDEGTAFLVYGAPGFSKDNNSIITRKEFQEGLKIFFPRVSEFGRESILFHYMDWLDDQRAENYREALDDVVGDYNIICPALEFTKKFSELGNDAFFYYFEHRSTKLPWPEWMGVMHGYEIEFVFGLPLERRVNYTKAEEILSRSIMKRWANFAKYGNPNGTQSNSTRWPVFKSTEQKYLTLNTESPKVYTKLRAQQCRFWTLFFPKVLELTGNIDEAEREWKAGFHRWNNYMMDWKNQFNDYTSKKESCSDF
Protocol: as §1

Chain of Acetylcholinesterase (O42275 whole entry): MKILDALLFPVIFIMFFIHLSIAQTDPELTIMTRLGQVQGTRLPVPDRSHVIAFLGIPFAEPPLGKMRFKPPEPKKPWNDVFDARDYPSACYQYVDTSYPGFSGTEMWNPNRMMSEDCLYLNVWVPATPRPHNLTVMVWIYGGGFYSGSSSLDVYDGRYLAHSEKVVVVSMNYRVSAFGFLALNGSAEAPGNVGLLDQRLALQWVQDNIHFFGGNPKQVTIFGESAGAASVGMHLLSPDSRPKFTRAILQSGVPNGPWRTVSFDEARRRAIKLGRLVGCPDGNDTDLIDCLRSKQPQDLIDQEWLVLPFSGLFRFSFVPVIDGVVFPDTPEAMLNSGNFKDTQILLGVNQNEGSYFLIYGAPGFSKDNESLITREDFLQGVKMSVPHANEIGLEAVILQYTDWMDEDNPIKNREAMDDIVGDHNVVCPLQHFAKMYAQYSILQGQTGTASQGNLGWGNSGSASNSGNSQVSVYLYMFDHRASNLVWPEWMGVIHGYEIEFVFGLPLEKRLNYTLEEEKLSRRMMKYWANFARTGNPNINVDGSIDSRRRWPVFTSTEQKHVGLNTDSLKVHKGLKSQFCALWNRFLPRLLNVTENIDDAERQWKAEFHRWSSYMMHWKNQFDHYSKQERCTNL

Row | Compound | IC50 (Acetylcholinesterase) [µM] | IC50 [1] [µM]
1 | CN(C)C(=O)Oc1cccc([N+](C)(C)C)c1 [m-Trimethylammoniumphenyldimethylcarbamate] | 19.3 | 43.2
2 | COc1ccccc1C1=C(C#N)C(=C(C#N)c2nnn[nH]2)NC(C)(c2ccccc2OC)C1 (centres undefined) [2-(Cyano(1H-tetrazol-5-yl)methylene)-6-methyl-4,6-bis(2'/2''-methoxyphenyl)-1,2,5,6-tetrahydronicotinonitrile (2g)] | 20.3 | 0.29
3 | CC1(c2ccc(I)cc2)CC(c2ccc(I)cc2)=C(C#N)C(=C(C#N)C#N)N1 (centres undefined) [2-[3-cyano-4,6-bis(4-iodophenyl)-6-methyl-1,2,5,6-tetrahydropyridin-2-ylidene]propanedinitrile (5e)] | 11.2 | 45.3
4 | CC1(c2cccc(Cl)c2)CC(c2cccc(Cl)c2)=C(C#N)C(=C(C#N)c2nnn[nH]2)N1 (centres undefined) [2-(Cyano(1H-tetrazol-5-yl)methylene)-6-methyl-4,6-bis(3'/3''-chlorophenyl)-1,2,5,6-tetrahydronicotinonitrile (2e)] | 2.32 | 2.78
5 | Cc1ccc(C2=C(C#N)C(=C(C#N)C#N)NC(C)(c3ccc(C)cc3)C2)cc1 (centres undefined) [2-[3-cyano-6-methyl-4,6-bis(4-methylphenyl)-1,2,5,6-tetrahydropyridin-2-ylidene]propanedinitrile (5b)] | 16.9 | 36.5
6 | CC1(c2ccccc2)CC(c2ccccc2)=C(C#N)C(=C(C#N)c2nnn[nH]2)N1 (centres undefined) [2-(Cyano(1H-tetrazol-5-yl)methylene)-6-methyl-4,6-bis(phenyl)-1,2,5,6-tetrahydronicotinonitrile (2a)] | 7.02 | 22.1
7 | COc1cccc(C2=C(C#N)C(=C(C#N)C#N)NC(C)(c3cccc(OC)c3)C2)c1 (centres undefined) [2-[3-cyano-4,6-bis(3-methoxyphenyl)-6-methyl-1,2,5,6-tetrahydropyridin-2-ylidene]propanedinitrile (5g)] | 1.56 | 48.2
8 | CC1(c2ccccc2)CC(c2ccccc2)=C(C#N)C(=C(C#N)C#N)N1 (centres undefined) [2-Dicyanomethylene-6-methyl-4,6-bis(phenyl)-1,2,5,6-tetrahydronicotinonitrile (5a)] | 20.3 | 48.1
9 | Cc1ccc(C2=C(C#N)C(=C(C#N)c3nnn[nH]3)NC(C)(c3ccc(C)cc3)C2)cc1 (centres undefined) [2-(Cyano(1H-tetrazol-5-yl)methylene)-6-methyl-4,6-bis(4'/4''-methylphenyl)-1,2,5,6-tetrahydronicotinonitrile (2b)] | 4.45 | 5.87
10 | CC1(c2ccc(O)cc2)CC(c2ccc(O)cc2)=C(C#N)C(=C(C#N)c2nnn[nH]2)N1 (centres undefined) [2-(Cyano(1H-tetrazol-5-yl)methylene)-6-methyl-4,6-bis(4'/4''-hydroxyphenyl)-1,2,5,6-tetrahydronicotinonitrile (2h)] | 7.42 | 2.45
11 | Cc1cccc(C2=C(C#N)C(=C(C#N)c3nnn[nH]3)NC(C)(c3cccc(C)c3)C2)c1 (centres undefined) [2-(Cyano(1H-tetrazol-5-yl)methylene)-6-methyl-4,6-bis(3'/3''-methylphenyl)-1,2,5,6-tetrahydronicotinonitrile (2c)] | 20.8 | 62.2
12 | CC1(c2ccc(O)cc2)CC(c2ccc(O)cc2)=C(C#N)C(=C(C#N)C#N)N1 (centres undefined) [2-[3-cyano-4,6-bis(4-hydroxyphenyl)-6-methyl-1,2,5,6-tetrahydropyridin-2-ylidene]propanedinitrile (5h)] | 5.38 | 42.2
13 | CC1(c2cccc(F)c2)CC(c2cccc(F)c2)=C(C#N)C(=C(C#N)C#N)N1 (centres undefined) [2-[3-cyano-4,6-bis(3-fluorophenyl)-6-methyl-1,2,5,6-tetrahydropyridin-2-ylidene]propanedinitrile (5f)] | 8.01 | 68.8
14 | CC1(c2ccc(F)cc2)CC(c2ccc(F)cc2)=C(C#N)C(=C(C#N)c2nnn[nH]2)N1 (centres undefined) [2-(Cyano(1H-tetrazol-5-yl)methylene)-6-methyl-4,6-bis(4'/4''-fluorophenyl)-1,2,5,6-tetrahydronicotinonitrile (2d)] | 2.01 | 38.8
15 | Cc1cccc(C2=C(C#N)C(=C(C#N)C#N)NC(C)(c3cccc(C)c3)C2)c1 (centres undefined) [2-[3-cyano-6-methyl-4,6-bis(3-methylphenyl)-1,2,5,6-tetrahydropyridin-2-ylidene]propanedinitrile (5c)] | 5.21 | 35.9
16 | COc1cccc(C2=C(C#N)C(=C(C#N)c3nnn[nH]3)NC(C)(c3cccc(OC)c3)C2)c1 (centres undefined) [2-(Cyano(1H-tetrazol-5-yl)methylene)-6-methyl-4,6-bis(3'/3''-methoxyphenyl)-1,2,5,6-tetrahydronicotinonitrile (2f)] | 5.11 | 39.2
17 | CC1(c2ccc(F)cc2)CC(c2ccc(F)cc2)=C(C#N)C(=C(C#N)C#N)N1 (centres undefined) [2-[3-cyano-4,6-bis(4-fluorophenyl)-6-methyl-1,2,5,6-tetrahydropyridin-2-ylidene]propanedinitrile (5d)] | 11.9 | 55.2
